Source: patent US8394442B2, “Process for the preparation of a flavoring concentrate, and a flavoring concentrate” (SYMRISE AG, priority 2007, dated 2013)
Where two headings read alike, the source gives them in different places.

Columns and labels:
[1] = log Pow* calculated by Formula 2 from log Pow and the polarity parameter P′(x) of the ethanol/water mixture
[2] = log Pow: distribution coefficient between 1-octanol and water; conditions: 1-octanol/water
[3] = solvent ethanol, proportion 10%
[4] = solvent ethanol, proportion 30%
[5] = solvent ethanol, proportion 40%
[6] = solvent ethanol, proportion 50%
[7] = solvent ethanol, proportion 60%
[8] = solvent ethanol, proportion 70%
[9] = solvent ethanol, proportion 80%
[10] = solvent ethanol, proportion 90%
[11] = solvent ethanol, proportion 100%

Row | Compound | log Pow* (P′ 4%) [1] | log Pow* (P′ 6%) [1] | log Pow* (P′ 8%) [1] | log Pow* (P′ 10%) [1] | log Pow* (P′ 30%) [1] | log Pow* (P′ 40%) [1] | log Pow [2] | log Pow* (P′ 2%) ([1]; solvent ethanol, proportion 2%) | log Pow* (P′ 4%) ([1]; solvent ethanol, proportion 4%) | log Pow* (P′ 6%) ([1]; solvent ethanol, proportion 6%) | log Pow* (P′ 8%) ([1]; solvent ethanol, proportion 8%) | log Pow* (P′ 10%) [1, 3] | log Pow* (P′ 30%) [1, 4] | log Pow* (P′ 40%) [1, 5] | log Pow* (P′ 50%) [1, 6] | log Pow* (P′ 60%) [1, 7] | log Pow* (P′ 70%) [1, 8] | log Pow* (P′ 80%) [1, 9] | log Pow* (P′ 90%) [1, 10] | log Pow* (P′ 100%) [1, 11] | other results
1 | CC/C=C\CC1C(=O)CCC1CC(=O)OC (centres unmarked) [Methyl jasmonate] | 1.94 | 1.85 | 1.77 | 1.70 | 1.10 | 0.88 | 2.12 |  |  |  |  |  |  |  |  |  |  |  |  |  | log Pow* (P′ 2%) [1]: 2.03; log Pow* (P′ 50%) [1]: 0.69; log Pow* (P′ 60%) [1]: 0.54; log Pow* (P′ 70%) [1]: 0.40; log Pow* (P′ 80%) [1]: 0.29; log Pow* (P′ 90%) [1]: 0.18; log Pow* (P′ 100%) [1]: 0.09
2 | SCc1ccco1 [Furfurylthiol-2] |  |  |  |  |  |  | 1.90 | 1.80 | 1.70 | 1.60 | 1.51 | 1.43 | 0.76 | 0.51 | 0.31 | 0.13 | −0.02 | −0.15 | −0.26 | −0.36 | 
3 | C=Cc1ccc(O)c(OC)c1 | 2.32 | 2.25 | 2.18 | 2.12 | 1.61 | 1.42 |  |  |  |  |  |  |  |  |  |  |  |  |  |  | log Pow* (P′ 2%) [1]: 2.40; log Pow* (P′ 50%) [1]: 1.26; log Pow* (P′ 60%) [1]: 1.13; log Pow* (P′ 70%) [1]: 1.01; log Pow* (P′ 80%) [1]: 0.91; log Pow* (P′ 90%) [1]: 0.82; log Pow* (P′ 100%) [1]: 0.75
4 | CCC/C=C/CO [2E-hexenol] |  |  |  |  |  |  | 1.75 | 1.64 | 1.53 | 1.43 | 1.33 | 1.24 | 0.51 | 0.24 | 0.02 | −0.17 | −0.33 | −0.47 | −0.60 | −0.71 | 
5 | Oc1ccccc1 [Phenol] |  |  |  |  |  |  |  | 1.35 | 1.22 | 1.10 | 0.98 | 0.87 | 0.02 | −0.30 | −0.56 | −0.79 | −0.98 | −1.15 | −1.30 | −1.43 | 
6 | CC(C)=CCCC(C)=CC=O [Citral] | 3.05 | 2.99 | 2.94 | 2.89 | 2.49 | 2.34 | 3.17 |  |  |  |  |  |  |  |  |  |  |  |  |  | log Pow* (P′ 2%) [1]: 3.11; log Pow* (P′ 50%) [1]: 2.22; log Pow* (P′ 60%) [1]: 2.11; log Pow* (P′ 70%) [1]: 2.02; log Pow* (P′ 80%) [1]: 1.94; log Pow* (P′ 90%) [1]: 1.87; log Pow* (P′ 100%) [1]: 1.81
7 | Isopropylmethoxypyrazine |  |  |  |  |  |  | 2.09 | 1.99 | 1.90 | 1.82 | 1.74 | 1.66 | 1.05 | 0.83 | 0.64 | 0.48 | 0.35 | 0.23 | 0.12 | 0.03 | 
8 | CC(=O)C(C)=O [Diacetyl] |  |  |  |  |  |  | −1.33 | −1.48 | −1.62 | −1.76 | −1.88 | −2.00 | −2.96 | −3.31 | −3.60 | −3.85 | −4.07 | −4.25 | −4.42 | −4.56 | 
9 | O=Cc1ccco1 [Furfural] |  |  |  |  |  |  |  | 0.46 | 0.20 | −0.04 | −0.28 | −0.50 | −2.24 | −2.88 | −3.41 | −3.87 | −4.26 | −4.60 | −4.90 | −5.16 | 
10 | CCCCOC(C)=O [Butylacetate] |  |  |  |  |  |  | 1.77 | 1.66 | 1.55 | 1.45 | 1.35 | 1.26 | 0.55 | 0.28 | 0.06 | −0.13 | −0.29 | −0.43 | −0.55 | −0.66 | 
11 | CCCCCCOC(C)=O [Hexylacetate] | 2.69 | 2.63 | 2.57 | 2.51 | 2.06 | 1.90 |  |  |  |  |  |  |  |  |  |  |  |  |  |  | log Pow* (P′ 2%) [1]: 2.76; log Pow* (P′ 50%) [1]: 1.76; log Pow* (P′ 60%) [1]: 1.64; log Pow* (P′ 70%) [1]: 1.54; log Pow* (P′ 80%) [1]: 1.46; log Pow* (P′ 90%) [1]: 1.38; log Pow* (P′ 100%) [1]: 1.31
12 | CCCCCCCC=O [Octanal] | 2.90 | 2.84 | 2.79 | 2.73 | 2.31 | 2.16 | 3.03 |  |  |  |  |  |  |  |  |  |  |  |  |  | log Pow* (P′ 2%) [1]: 2.96; log Pow* (P′ 50%) [1]: 2.03; log Pow* (P′ 60%) [1]: 1.92; log Pow* (P′ 70%) [1]: 1.83; log Pow* (P′ 80%) [1]: 1.75; log Pow* (P′ 90%) [1]: 1.67; log Pow* (P′ 100%) [1]: 1.61
13 | CCOC(=O)C(C)CC (centres unmarked) [Ethylmethylbutyrate-2] |  |  |  |  |  |  | 2.38 | 2.30 | 2.22 | 2.14 | 2.07 | 2.00 | 1.47 | 1.27 | 1.11 | 0.97 | 0.85 | 0.75 | 0.65 | 0.57 | 
14 | O=Cc1ccccc1 [Benzaldehyde] |  |  |  |  |  |  |  | 1.52 | 1.40 | 1.30 | 1.19 | 1.09 | 0.32 | 0.03 | −0.20 | −0.41 | −0.58 | −0.73 | −0.86 | −0.98 | 
15 | C/C=C/C(=O)C1=C(C)C=CCC1(C)C [beta-damascenone] |  |  |  |  |  |  | 4.40 | 4.35 | 4.31 | 4.27 | 4.23 | 4.20 | 3.91 | 3.80 | 3.71 | 3.64 | 3.57 | 3.52 | 3.47 | 3.42 | 
16 | CCCCCC(=O)OC [Methylcapronate] |  |  |  |  |  |  | 2.30 | 2.21 | 2.13 | 2.05 | 1.98 | 1.91 | 1.36 | 1.15 | 0.98 | 0.84 | 0.72 | 0.61 | 0.51 | 0.43 | 
17 | CS [Methylmercaptan] |  |  |  |  |  |  | 0.65 | 0.34 | 0.05 | −0.22 | −0.48 | −0.73 | −2.68 | −3.40 | −4.00 | −4.51 | −4.95 | −5.33 | −5.67 | −5.97 | 
18 | CCCCCC1CCCC(=O)O1 (centres unmarked) [delta decalactone] |  |  |  |  |  |  | 2.42 | 2.34 | 2.26 | 2.19 | 2.12 | 2.05 | 1.52 | 1.33 | 1.17 | 1.03 | 0.92 | 0.81 | 0.72 | 0.64 | 
19 | CCCCCC=O [Hexanal] | 1.77 | 1.68 | 1.60 | 1.51 | 0.87 | 0.63 |  |  |  |  |  |  |  |  |  |  |  |  |  |  | log Pow* (P′ 50%) [1]: 0.43; log Pow* (P′ 60%) [1]: 0.27; log Pow* (P′ 70%) [1]: 0.12; log Pow* (P′ 80%) [1]: 0.00; log Pow* (P′ 90%) [1]: −0.12; log Pow* (P′ 100%) [1]: −0.21
20 | OCc1ccco1 [Furfuryl alcohol] |  |  |  |  |  |  |  | −0.43 | −1.10 | −1.74 | −2.35 | −2.92 | −7.46 | −9.13 | −10.52 | −11.71 | −12.73 | −13.61 | −14.39 | −15.08 | 
